Earlier results in USRE50805E1, “Single-layer oral dose of neuro-attenuating ketamine” (ACADIA Pharmaceuticals Inc., priority 2013, dated 2026).
Counter-ions that a name gives are not always drawn.

What was measured:
[1] = after oral administration, background statement
[2] = not given; remark: listed apart in the source

## CNC1(c2ccccc2Cl)CCCCC1=O (centres unmarked) [ketamine hydrochloride]
other
  solubility in water: about 200 mg/ml

## NC1(c2ccccc2Cl)CCCCC1=O (racemic) [norketamine, (R,S)—2-(2-chlorophenyl)-2-(amino) cyclohexanone]
[1]
  elimination half-life: 4 h

## CNC1(c2ccccc2Cl)CCCCC1=O (racemic) [ketamine, (R,S)—2-(2-chlorophenyl)-2-(methylamino) cyclohexanone]
[2]; exceeding it leads to more pronounced side effects
  optimal efficacy plasma concentration: 10 to 300 ng/mL
[2]; in vivo
  blood concentration level above which side effects may become more pronounced: above 300 ng/L
[1]
  elimination half-life: 2 to 3 h
